Data from US7465401B2, “Treatment of chloraminated water” (Water Corporation, priority 2003, dated 2008).

Tests used:
[1] = system: ammonia oxidising bacteria, cultured from a chloraminated system; test: Ammonia level over days in a dechlorinated chloraminated water sample dosed with ammonia and ammonia oxidising bacteria; type: cell-based
Experimental: After the elimination of chlorine, a chloraminated water bulk sample was dosed with excess ammonia to achieve 1.50 mg/L ammonia-N concentration. The bulk sample was dosed with ammonia oxidising bacteria, cultured from a chloraminated system.
The bulk sample was then subsampled into 9 separate portions. These portions were dosed as follows: • 1. no dosage • 2. 0.1 mg/L copper • 3. 0.2 mg/L copper • 4. 0.3 mg/L copper • 5. 0.2 mg/L zinc • 6. 0.4 mg/L zinc • 7. 0.2 mg/L copper, 0.1 mg/L zinc • 8. 0.1 mg/L copper, 0.2 mg/L zinc • 9. 0.2 mg/L copper, 0.4 mg/L zinc.
The samples were measured over subsequent days to determine the ammonia levels.

nitrification = test: Field trial: covered reservoir dosed with copper sulphate; ammonia, nitrite and nitrate measured at inlet and outlet; conditions: copper about 0.25 mg/L for six weeks
Experimental: The levels of ammonia, nitrite and nitrate were measured both at reservoir inlet and outlet.

[2] = 0.1 mg/L copper, 1.50 mg/L ammonia-N at start
[3] = 0.2 mg/L copper, 1.50 mg/L ammonia-N at start
[4] = 0.3 mg/L copper, 1.50 mg/L ammonia-N at start

Row | SMILES | time after which the ammonia level begins to fall [1, 2] | time to fall to the base ammonia level of about 0.1 mg/L [1, 2] [days] | time the ammonia level was maintained [1, 3] | time to reach the base ammonia level [1, 3] [days] | time the ammonia level was maintained [1, 4] [days] | time to reach the base ammonia level [1, 4] [days] | microbiological activity following dosing (nitrification) | nitrate and nitrite levels at reservoir outlet (nitrification; detention period 3.5 days) | percentage of ammonia surviving from inlet to outlet (nitrification; detention period 3.5 days) | effect of zinc on the efficacy of the copper dose ([1]; zinc 0.1-0.4 mg/L in conjunction with copper 0.1-0.2 mg/L)
1 | [Cu] [copper] | about seven | ~12 | about 15 days | 19 | 34 | 40 | significant reduction | substantial reduction | substantial increase | –
2 | [Zn] [zinc] | – | – | – | – | – | – | – | – | – | decrease the efficacy of the copper dose
